Laboratory results as given in ChEMBL document CHEMBL1201862, “PubChem BioAssay data set” (2004).
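Method: 48-hour compound exposure of cells in 96-well plates, five concentrations, linear interpolation of endpoints. GI50 is the concentration that inhibits growth by half.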 Active and inactive are the calls of the source. No stated cut-off is given here; in the data, active = GI50 up to about 1.1 µM and inactive = higher.

Tests used:
Assay in all cases: inhibition of tumour cell growth, NCI panel, 48 h
K562 = system: K562
MDA-MB-435 = system: MDA-MB-435
T47D = system: T47D
A549 = system: A549
SK-MEL-28 = system: SK-MEL-28
SN12C = system: SN12C
SK-MEL-5 = system: SK-MEL-5
HOP-62 = system: HOP-62
DU-145 = system: DU-145
CAKI-1 = system: CAKI-1
COLO 205 = system: COLO 205
SK-OV-3 = system: SK-OV-3
LOX IMVI = system: LOX IMVI
SF-295 = system: SF-295
KM12 = system: KM12
UACC-62 = system: UACC-62
HOP-92 = system: HOP-92
MCF7 = system: MCF7
RXF 393 = system: RXF 393
Malme-3M = system: Malme-3M
PC-3 = system: PC-3
SF-268 = system: SF-268
TK-10 = system: TK-10
ACHN = system: ACHN
OVCAR-4 = system: OVCAR-4
IGROV-1 = system: IGROV-1
MOLT-4 = system: MOLT-4
CCRF-CEM = system: CCRF-CEM
HCT-15 = system: HCT-15
NCI-H522 = system: NCI-H522
NCI/ADR-RES = system: NCI/ADR-RES
OVCAR-5 = system: OVCAR-5
U-251 = system: U-251
OVCAR-8 = system: OVCAR-8
UACC-257 = system: UACC-257
EKVX = system: EKVX
SK-MEL-2 = system: SK-MEL-2
UO-31 = system: UO-31
M14 = system: M14
RPMI-8226 = system: RPMI-8226
HL-60 = system: HL-60
SW-620 = system: SW-620
OVCAR-3 = system: OVCAR-3
BT-549 = system: BT-549
SF-539 = system: SF-539
SNB-19 = system: SNB-19
NCI-H23 = system: NCI-H23
Hs-578T = system: Hs-578T
MDA-N = system: MDA-N
MDA-MB-231 = system: MDA-MB-231
NCI-H460 = system: NCI-H460
HCT-116 = system: HCT-116
SR = system: SR
786-0 = system: 786-0
NCI-H226 = system: NCI-H226
HT-29 = system: HT-29
HCC 2998 = system: HCC 2998
SNB-75 = system: SNB-75
A498 = system: A498

For `S=c1[nH]nc(COc2ccc3c(c2)CCCC3)n1/N=C/c1ccc(Cl)cc1`, the GI50 (K562) was 17.3 µM (inactive), the GI50 (MDA-MB-435) was 19.3 µM (inactive) and the GI50 (T47D) was 12.1 µM (inactive). For the same compound, the GI50 (A549) was 18.7 µM (inactive), the GI50 (SK-MEL-28) was 18.2 µM (inactive) and the GI50 (SN12C) was 22.8 µM (inactive). For the same compound, the GI50 (SK-MEL-5) was 15.7 µM (inactive), the GI50 (HOP-62) was 15.9 µM (inactive) and the GI50 (DU-145) was 15.5 µM (inactive). For the same compound, the GI50 (CAKI-1) was 18.6 µM (inactive), the GI50 (COLO 205) was 16.6 µM (inactive) and the GI50 (SK-OV-3) was 18.1 µM (inactive). The GI50 (LOX IMVI) was 20.2 µM (inactive), the GI50 (SF-295) was 17.8 µM (inactive) and the GI50 (KM12) was 16.3 µM (inactive). The GI50 (UACC-62) was 19.1 µM (inactive), the GI50 (HOP-92) was 14.7 µM (inactive) and the GI50 (MCF7) was 11.8 µM (inactive). For the same compound, the GI50 (RXF 393) was 14.4 µM (inactive), the GI50 (Malme-3M) was 17 µM (inactive) and the GI50 (PC-3) was 14.9 µM (inactive). The GI50 (SF-268) was 17.9 µM (inactive), the GI50 (TK-10) was 20.1 µM (inactive) and the GI50 (ACHN) was 20.1 µM (inactive). The GI50 (OVCAR-4) was 18.1 µM (inactive), the GI50 (IGROV-1) was 16.4 µM (inactive) and the GI50 (MOLT-4) was 19.4 µM (inactive). The GI50 (CCRF-CEM) was 32.1 µM (inactive), the GI50 (HCT-15) was 20.4 µM and the GI50 (NCI-H522) was 14.1 µM (inactive). The GI50 (NCI/ADR-RES) was 17.6 µM (inactive), the GI50 (OVCAR-5) was 17.9 µM (inactive) and the GI50 (U-251) was 19.1 µM (inactive). The GI50 (OVCAR-8) was 16.6 µM (inactive), the GI50 (UACC-257) was 22.6 µM (inactive) and the GI50 (EKVX) was 19.1 µM (inactive). For the same compound, the GI50 (SK-MEL-2) was 18.2 µM (inactive), the GI50 (UO-31) was 17.1 µM (inactive) and the GI50 (M14) was 18 µM (inactive). The GI50 (RPMI-8226) was 17.3 µM (inactive), the GI50 (HL-60) was 18.2 µM (inactive) and the GI50 (SW-620) was 17.4 µM (inactive). The GI50 (OVCAR-3) was 16 µM (inactive), the GI50 (BT-549) was 17 µM (inactive) and the GI50 (SF-539) was 17.6 µM (inactive). For the same compound, the GI50 (SNB-19) was 19.5 µM (inactive), the GI50 (NCI-H23) was 19.5 µM (inactive) and the GI50 (Hs-578T) was 21.6 µM (inactive). For the same compound, the GI50 (MDA-N) was 17.7 µM (inactive), the GI50 (MDA-MB-231) was 24.1 µM (inactive) and the GI50 (NCI-H460) was 15.8 µM (inactive). For the same compound, the GI50 (HCT-116) was 14.5 µM (inactive).
`Cn1cc(S(=O)(=O)NC(=O)Nc2ccc(Cl)cc2)c(=O)c2ccc(Cl)cc21` was tested, and the GI50 (K562) was 47.1 µM (inactive), the GI50 (SR) was 43.8 µM (inactive) and the GI50 (MDA-MB-435) was 48.5 µM (inactive). For the same compound, the GI50 (T47D) was > 100 µM (inactive), the GI50 (786-0) was > 100 µM (inactive) and the GI50 (A549) was > 100 µM (inactive). For the same compound, the GI50 (SK-MEL-28) was > 100 µM (inactive), the GI50 (NCI-H226) was 75 µM (inactive) and the GI50 (SN12C) was 99.3 µM (inactive). For the same compound, the GI50 (SK-MEL-5) was > 100 µM (inactive), the GI50 (HOP-62) was > 100 µM (inactive) and the GI50 (HT-29) was > 100 µM (inactive). The GI50 (CAKI-1) was > 100 µM (inactive), the GI50 (SK-OV-3) was > 100 µM (inactive) and the GI50 (LOX IMVI) was > 100 µM (inactive). For the same compound, the GI50 (SF-295) was > 100 µM (inactive), the GI50 (KM12) was 69.7 µM (inactive) and the GI50 (UACC-62) was 20.9 µM (inactive). The GI50 (MCF7) was > 100 µM (inactive), the GI50 (RXF 393) was > 100 µM (inactive) and the GI50 (Malme-3M) was > 100 µM (inactive). The GI50 (PC-3) was 76.6 µM (inactive), the GI50 (SF-268) was > 100 µM (inactive) and the GI50 (TK-10) was > 100 µM (inactive). The GI50 (ACHN) was 34.2 µM (inactive), the GI50 (OVCAR-4) was > 100 µM (inactive) and the GI50 (IGROV-1) was > 100 µM (inactive). For the same compound, the GI50 (MOLT-4) was 85.5 µM (inactive), the GI50 (CCRF-CEM) was 92.9 µM (inactive) and the GI50 (HCT-15) was 25.7 µM. The GI50 (NCI-H522) was 20.9 µM (inactive), the GI50 (NCI/ADR-RES) was 38 µM (inactive) and the GI50 (OVCAR-5) was > 100 µM (inactive). For the same compound, the GI50 (U-251) was 93.1 µM (inactive), the GI50 (HCC 2998) was 85.3 µM (inactive) and the GI50 (OVCAR-8) was > 100 µM (inactive). For the same compound, the GI50 (UACC-257) was > 100 µM (inactive), the GI50 (SNB-75) was > 100 µM (inactive) and the GI50 (EKVX) was > 100 µM (inactive). For the same compound, the GI50 (SK-MEL-2) was > 100 µM (inactive), the GI50 (UO-31) was > 100 µM (inactive) and the GI50 (M14) was > 100 µM (inactive). The GI50 (SW-620) was > 100 µM (inactive), the GI50 (OVCAR-3) was > 100 µM (inactive) and the GI50 (BT-549) was 43.8 µM (inactive). The GI50 (SF-539) was > 100 µM (inactive), the GI50 (SNB-19) was 87.9 µM (inactive) and the GI50 (NCI-H23) was 70 µM (inactive). For the same compound, the GI50 (Hs-578T) was 72.1 µM (inactive), the GI50 (MDA-N) was > 100 µM (inactive) and the GI50 (MDA-MB-231) was > 100 µM (inactive). The GI50 (NCI-H460) was > 100 µM (inactive) and the GI50 (HCT-116) was 84.1 µM (inactive).
In the case of `C[N+]1(CCCl)CC[N+](C)(CCCl)CC1` (stereo not given), the GI50 (K562) is reported as > 100 µM (inactive), the GI50 (MDA-MB-435) is reported as > 100 µM (inactive) and the GI50 (T47D) is reported as > 100 µM (inactive). For the same compound, the GI50 (786-0) was > 100 µM (inactive), the GI50 (A549) was > 100 µM (inactive) and the GI50 (SK-MEL-28) was > 100 µM (inactive). For the same compound, the GI50 (NCI-H226) was > 100 µM (inactive), the GI50 (SN12C) was > 100 µM (inactive) and the GI50 (SK-MEL-5) was > 100 µM (inactive). For the same compound, the GI50 (HOP-62) was > 100 µM (inactive), the GI50 (DU-145) was > 100 µM (inactive) and the GI50 (HT-29) was > 100 µM (inactive). For the same compound, the GI50 (CAKI-1) was > 100 µM (inactive), the GI50 (COLO 205) was > 100 µM (inactive) and the GI50 (SK-OV-3) was > 100 µM (inactive). For the same compound, the GI50 (LOX IMVI) was > 100 µM (inactive), the GI50 (SF-295) was > 100 µM (inactive) and the GI50 (KM12) was > 100 µM (inactive). For the same compound, the GI50 (UACC-62) was > 100 µM (inactive), the GI50 (MCF7) was > 100 µM (inactive) and the GI50 (RXF 393) was > 100 µM (inactive). The GI50 (Malme-3M) was > 100 µM (inactive), the GI50 (PC-3) was > 100 µM (inactive) and the GI50 (SF-268) was > 100 µM (inactive). For the same compound, the GI50 (TK-10) was > 100 µM (inactive), the GI50 (ACHN) was > 100 µM (inactive) and the GI50 (OVCAR-4) was > 100 µM (inactive). For the same compound, the GI50 (IGROV-1) was > 100 µM (inactive), the GI50 (MOLT-4) was 83.6 µM (inactive) and the GI50 (CCRF-CEM) was > 100 µM (inactive). For the same compound, the GI50 (HCT-15) was > 100 µM, the GI50 (NCI/ADR-RES) was > 100 µM (inactive) and the GI50 (OVCAR-5) was > 100 µM (inactive). The GI50 (U-251) was > 100 µM (inactive), the GI50 (OVCAR-8) was > 100 µM (inactive) and the GI50 (UACC-257) was > 100 µM (inactive). The GI50 (SNB-75) was 42.1 µM (inactive), the GI50 (EKVX) was > 100 µM (inactive) and the GI50 (SK-MEL-2) was > 100 µM (inactive). For the same compound, the GI50 (UO-31) was 99.5 µM (inactive), the GI50 (M14) was > 100 µM (inactive) and the GI50 (RPMI-8226) was > 100 µM (inactive). For the same compound, the GI50 (HL-60) was 28.8 µM (inactive), the GI50 (SW-620) was > 100 µM (inactive) and the GI50 (OVCAR-3) was > 100 µM (inactive). For the same compound, the GI50 (BT-549) was > 100 µM (inactive), the GI50 (SF-539) was > 100 µM (inactive) and the GI50 (A498) was > 100 µM (inactive). The GI50 (SNB-19) was > 100 µM (inactive), the GI50 (NCI-H23) was > 100 µM (inactive) and the GI50 (Hs-578T) was > 100 µM (inactive). The GI50 (MDA-N) was > 100 µM (inactive), the GI50 (MDA-MB-231) was > 100 µM (inactive) and the GI50 (NCI-H460) was > 100 µM (inactive). The GI50 (HCT-116) was > 100 µM (inactive).
